{
  "source": "patent US20090010891A1",
  "about": "“Sepsis Treatment Agent” (Toa Pharmaceutical Co., Ltd., priority 2007, published 2009)",
  "system": "sepsis patients",
  "experiment": "treatment course of sepsis in blood culture positive patients",
  "assay_type": "in vivo, human",
  "details": "observation for 1 year; for Cured / Deaths: number of cases, Bio3 1 g 3 times a day where given",
  "method": "The sepsis treatment agent was administered 3 times a day at 1 g each time using a live bacteria formulation of a mix of the three bacteria. The patients were hospitalized in a psychiatric hospital. The patients were blood culture positive which is a predictor for bacterial translocation. In 4 cases, imipenem/cilastatin (IPM/CS) was administered, and in 4 cases, latamoxef (LMOX) was given. During the observation period, CRP (C reactive protein) increased slightly, and E. coli and enterococcus and the like were detected by culturing blood. After observation for 1 year, two cases died from both groups, and two cases were cured.",
  "data": [
    {"compound": "CO[C@@]1(NC(=O)C(C(=O)O)c2ccc(O)cc2)C(=O)N2C(C(=O)O)=C(CSc3nnnn3C)CO[C@@H]21", "note": "(some centres unmarked) [Latamoxef, latamoxef]", "values": [
      {"measurement": "Cured", "value": 2},
      {"measurement": "Deaths", "value": 2},
      {"measurement": "Cured", "setting": "listed as latamoxef", "value": "two"},
      {"measurement": "Deaths", "setting": "listed as latamoxef", "value": "two"},
      {"measurement": "death rate (%)", "value": 50, "unit": "%"}
    ]},
    {"compound": "C[C@@H](O)[C@H]1C(=O)N2C(C(=O)O)=C(SCCN=CN)C[C@H]12", "note": "[Imipenem, imipenem/cilastatin]", "values": [
      {"measurement": "Cured", "value": 2},
      {"measurement": "Deaths", "value": 2},
      {"measurement": "death rate (%)", "value": 50, "unit": "%"}
    ]}
  ]
}
